The source of these data is PMC8035250 (ChemMedChem, 2021).

≈ marks a conversion by molar mass, not a printed value.

Data set [1] has as its system MDA-MB-231 breast cancer xenograft. The note with it: cited from earlier work.
The conditions of data set [2]: cited from earlier work.
The conditions of data set [3]: ref 14b, cited from earlier work.
The conditions of data set [4]: previously reported; ref 14b; cited from earlier work.
The subject of the next data set is osteoclastogenesis. As to the kind of experiment: In vitro osteoclast differentiation assay. In kind it is cell-based, mice. Conditions: 10 μM inhibitor, rM-CSF and RANKL, 5–7 d.
Data set [5] relates to monocytes, MSCs, or mature osteoclasts. Conditions: even at a concentration of 10 μM; ref manuscript submitted; cited from earlier work.
The conditions of data set [6]: previously reported; ref 14b; cited from earlier work. The source holds these as a separate data set.
For data set [7] the following is noted: previously reported; ref 14b; cited from earlier work. This is another data set of the same source.

Take `COCCC1(Oc2ccc(Oc3ccc(-c4nc(-c5ccc(F)cc5)co4)cc3)cc2)C(=O)NC(=O)NC1=O` [compound 28, 5-(4-{4-[4-(4-fluorophenyl)-1,3-oxazol-2-yl]phenoxy}phenoxy)-5-(2-methoxyethyl)-pyrimidine-2,4,6 (1H,3H,5H)-trione]: the “MDA-MB-231 breast cancer xenograft growth” value in data set [1] is given as “inhibited MDA-MB-231 breast cancer xenograft growth”. Besides, the Osteolytic damage entry in data set [1] (in vivo prevention study) was “significantly reduced osteolytic damage”. The “Creatine kinase (measure of muscle toxicity)” value in data set [2] was “did not cause an increase in creatine kinase”.

For `CNC(=O)[C@@H](NC(=O)c1ccc(-c2ccc(CSc3nc4c(c(=O)[nH]3)CCC4)c(F)c2)o1)C(C)C` [RF036], the Solubility in data set [3] (converted from […] with MW 499.17 g/mol) was 7.74 µg/mL (≈ 15.5 µM). The “Solubility class in words” value in data set [3] (poor defined as <10 μg/mL or <20 μM) is on record as “poor solubility”. Besides, the Human microsome half-life in data set [4] was 12 min. Further, the “Osteoclastogenesis level compared with control” value in the data set with osteoclastogenesis stood at 24%. In addition, the “Toxicity towards monocytes, MSCs, or mature osteoclasts” value in data set [5] is reported as “not due to the compound being toxic”. Also, in data set [6], the Rat microsome half-life is given as 9 min. In data set [7], the Mouse microsome half-life was 20 min.
